Data on 38 molecules can be found in US6960574B2, “Antagonists of RF-amide neuropeptides” (University of Florida, priority 2002, dated 2005).

Peptide text beside a SMILES is read from it. * marks the point of attachment. Dansyl = CN(C)c1cccc2c(S(=O)(=O)*)cccc12

This test relates to receptor labeled by the radioiodinated analogue of 1 (4, [125I]-YLFQPQRF-NH2); neuropeptide FF receptor. The test can be described thus: Competitive radioligand binding against 4 ([125I]Y8F-amide). The settings on record: mixture-based positional scanning; difference from averaged radioligand displacement of whole library (0); about 80 a.u. = 10-fold change in Ki.
For `CN(C)c1cccc2c(S(=O)(=O)N[C@@H](CCCCN)C(=O)N[C@@H](Cc3ccc(O)cc3)C(=O)N[C@@H](CCCNC(=N)N)C(N)=O)cccc12` [Dansyl-KYR-amide] (Dansyl-Lys-Tyr-Arg-NH2), the “Relative Binding Index (RBI)” value was 23 a.u. Next, `C[C@H](NS(=O)(=O)c1cccc2c(N(C)C)cccc12)C(=O)N[C@@H](Cc1c[nH]c2ccccc12)C(=O)N[C@@H](CCCNC(=N)N)C(N)=O` [Dansyl-AWR-amide] (Dansyl-Ala-Trp-Arg-NH2): 21 a.u. Next, `CN(C)c1cccc2c(S(=O)(=O)N[C@@H](CCCNC(=N)N)C(=O)N[C@@H](CC(=O)O)C(=O)N[C@@H](CCCNC(=N)N)C(N)=O)cccc12` [Dansyl-RDR-amide] (Dansyl-Arg-Asp-Arg-NH2): −11 a.u; `CC(C)C[C@H](NS(=O)(=O)c1cccc2c(N(C)C)cccc12)C(=O)NCC(=O)N[C@@H](CCCNC(=N)N)C(N)=O` [Dansyl-LGR-amide] (Dansyl-Leu-Gly-Arg-NH2): −27 a.u; `CC(C)[C@H](NS(=O)(=O)c1cccc2c(N(C)C)cccc12)C(=O)N[C@@H](Cc1c[nH]c2ccccc12)C(=O)N[C@@H](CCCNC(=N)N)C(N)=O` [Dansyl-VWR-amide] (Dansyl-Val-Trp-Arg-NH2): 4 a.u. `C[C@@H](O)[C@H](NC(=O)CNS(=O)(=O)c1cccc2c(N(C)C)cccc12)C(=O)N[C@@H](CCCNC(=N)N)C(N)=O` [Dansyl-GTR-amide] (Dansyl-Gly-Thr-Arg-NH2): the “Relative Binding Index (RBI)” value came out at 31 a.u.

Take `CSCC[C@H](NC(=O)[C@H](Cc1c[nH]c2ccccc12)NS(=O)(=O)c1cccc2c(N(C)C)cccc12)C(=O)N[C@@H](CCCNC(=N)N)C(N)=O` [Dansyl-WMR-amide] (Dansyl-Trp-Met-Arg-NH2): the “Relative Binding Index (RBI)” value is 9 a.u. Next, `CN(C)c1cccc2c(S(=O)(=O)N[C@@H](Cc3ccc(O)cc3)C(=O)N[C@@H](CC(=O)O)C(=O)N[C@@H](CCCNC(=N)N)C(N)=O)cccc12` [Dansyl-YDR-amide] (Dansyl-Tyr-Asp-Arg-NH2): −11 a.u.

On to `CN(C)c1cccc2c(S(=O)(=O)N[C@@H](CCC(=O)O)C(=O)NCC(=O)N[C@@H](CCCNC(=N)N)C(N)=O)cccc12` [Dansyl-EGR-amide] (Dansyl-Glu-Gly-Arg-NH2), for which the “Relative Binding Index (RBI)” value stood at 22 a.u.

`CN(C)c1cccc2c(S(=O)(=O)N[C@@H](CCCNC(=N)N)C(=O)N[C@@H](CCC(=O)O)C(=O)N[C@@H](CCCNC(=N)N)C(N)=O)cccc12` [Dansyl-RER-amide] (Dansyl-Arg-Glu-Arg-NH2): the “Relative Binding Index (RBI)” value is on record as 7 a.u. Take `CSCC[C@H](NC(=O)[C@H](Cc1ccccc1)NS(=O)(=O)c1cccc2c(N(C)C)cccc12)C(=O)N[C@@H](CCCNC(=N)N)C(N)=O` [Dansyl-FMR-amide] (Dansyl-Phe-Met-Arg-NH2): the “Relative Binding Index (RBI)” value is 9 a.u.

For `C[C@@H](O)[C@H](NS(=O)(=O)c1cccc2c(N(C)C)cccc12)C(=O)N[C@@H](Cc1c[nH]c2ccccc12)C(=O)N[C@@H](CCCNC(=N)N)C(N)=O` [Dansyl-TWR-amide] (Dansyl-Thr-Trp-Arg-NH2), the “Relative Binding Index (RBI)” value is reported as 0 a.u. With `CN(C)c1cccc2c(S(=O)(=O)N[C@@H](CO)C(=O)N[C@@H](Cc3ccc(O)cc3)C(=O)N[C@@H](CCCNC(=N)N)C(N)=O)cccc12` [Dansyl-SYR-amide] (Dansyl-Ser-Tyr-Arg-NH2), the “Relative Binding Index (RBI)” value came to 15 a.u. With `CN(C)c1cccc2c(S(=O)(=O)NCC(=O)N3CCC[C@H]3C(=O)N[C@@H](CCCNC(=N)N)C(N)=O)cccc12` [Dansyl-GPR-amide] (Dansyl-Gly-Pro-Arg-NH2) the figure was 28 a.u; with `CC(C)C[C@H](NS(=O)(=O)c1cccc2c(N(C)C)cccc12)C(=O)N[C@@H](CCC(=O)O)C(=O)N[C@@H](CCCNC(=N)N)C(N)=O` [Dansyl-LER-amide] (Dansyl-Leu-Glu-Arg-NH2), −32 a.u. On to `C[C@H](NC(=O)[C@H](CCCNC(=N)N)NS(=O)(=O)c1cccc2c(N(C)C)cccc12)C(=O)N[C@@H](CCCNC(=N)N)C(N)=O` [Dansyl-RAR-amide] (Dansyl-Arg-Ala-Arg-NH2), for which the “Relative Binding Index (RBI)” value was −42 a.u. With `CN(C)c1cccc2c(S(=O)(=O)N[C@@H](CC(=O)O)C(=O)NCC(=O)N[C@@H](CCCNC(=N)N)C(N)=O)cccc12` [Dansyl-DGR-amide] (Dansyl-Asp-Gly-Arg-NH2) the figure was 0 a.u; with `C[C@H](NC(=O)[C@H](CCC(N)=O)NS(=O)(=O)c1cccc2c(N(C)C)cccc12)C(=O)N[C@@H](CCCNC(=N)N)C(N)=O` [Dansyl-QAR-amide] (Dansyl-Gln-Ala-Arg-NH2), −28 a.u; with `CSCC[C@H](NS(=O)(=O)c1cccc2c(N(C)C)cccc12)C(=O)N[C@@H](CCCCN)C(=O)N[C@@H](CCCNC(=N)N)C(N)=O` [Dansyl-MKR-amide] (Dansyl-Met-Lys-Arg-NH2), −46 a.u. For the molecule `CC(C)C[C@H](NS(=O)(=O)c1cccc2c(N(C)C)cccc12)C(=O)N[C@@H](CCC(N)=O)C(=O)N[C@@H](CCCNC(=N)N)C(N)=O` [Dansyl-LQR-amide] (Dansyl-Leu-Gln-Arg-NH2), the “Relative Binding Index (RBI)” value is reported as −18 a.u. With `CN(C)c1cccc2c(S(=O)(=O)N[C@@H](CC(N)=O)C(=O)N[C@@H](CCCNC(=N)N)C(=O)N[C@@H](CCCNC(=N)N)C(N)=O)cccc12` [Dansyl-NRR-amide] (Dansyl-Asn-Arg-Arg-NH2) the figure was 11 a.u.

Consider `CN(C)c1cccc2c(S(=O)(=O)N[C@@H](CCC(=O)O)C(=O)N[C@@H](CC(=O)O)C(=O)N[C@@H](CCCNC(=N)N)C(N)=O)cccc12` [Dansyl-EDR-amide] (Dansyl-Glu-Asp-Arg-NH2), for which the “Relative Binding Index (RBI)” value was −1 a.u. Next, `CN(C)c1cccc2c(S(=O)(=O)N[C@@H](CCC(N)=O)C(=O)N[C@@H](CCCNC(=N)N)C(=O)N[C@@H](CCCNC(=N)N)C(N)=O)cccc12` [Dansyl-QRR-amide] (Dansyl-Gln-Arg-Arg-NH2): 20 a.u; `CC[C@H](C)[C@H](NS(=O)(=O)c1cccc2c(N(C)C)cccc12)C(=O)N[C@@H](Cc1c[nH]c2ccccc12)C(=O)N[C@@H](CCCNC(=N)N)C(N)=O` [Dansyl-IWR-amide] (Dansyl-Ile-Trp-Arg-NH2): −2 a.u.

`CN(C)c1cccc2c(S(=O)(=O)NCC(=O)N[C@@H](CC(N)=O)C(=O)N[C@@H](CCCNC(=N)N)C(N)=O)cccc12` [Dansyl-GNR-amide] (Dansyl-Gly-Asn-Arg-NH2): the “Relative Binding Index (RBI)” value is listed as 26 a.u.

Take `CN(C)c1cccc2c(S(=O)(=O)N[C@@H](CC(N)=O)C(=O)N[C@@H](CO)C(=O)N[C@@H](CCCNC(=N)N)C(N)=O)cccc12` [Dansyl-NSR-amide] (Dansyl-Asn-Ser-Arg-NH2): the “Relative Binding Index (RBI)” value came out at 33 a.u.

For `CN(C)c1cccc2c(S(=O)(=O)N[C@@H](Cc3c[nH]c4ccccc34)C(=O)N[C@@H](Cc3c[nH]cn3)C(=O)N[C@@H](CCCNC(=N)N)C(N)=O)cccc12` [Dansyl-WHR-amide] (Dansyl-Trp-His-Arg-NH2), the “Relative Binding Index (RBI)” value is listed as 3 a.u. Next, `CC[C@H](C)[C@H](NC(=O)[C@H](Cc1c[nH]cn1)NS(=O)(=O)c1cccc2c(N(C)C)cccc12)C(=O)N[C@@H](CCCNC(=N)N)C(N)=O` [Dansyl-HIR-amide] (Dansyl-His-Ile-Arg-NH2): 23 a.u; `CN(C)c1cccc2c(S(=O)(=O)N[C@@H](CCC(N)=O)C(=O)N[C@@H](CCCCN)C(=O)N[C@@H](CCCNC(=N)N)C(N)=O)cccc12` [Dansyl-QKR-amide] (Dansyl-Gln-Lys-Arg-NH2): 19 a.u. As for `CN(C)c1cccc2c(S(=O)(=O)N[C@@H](Cc3cnc[nH]3)C(=O)N[C@@H](Cc3ccccc3)C(=O)N[C@@H](CCCNC(=N)N)C(N)=O)cccc12` [Dansyl-HFR-amide] (Dansyl-His-Phe-Arg-NH2), the “Relative Binding Index (RBI)” value is given as 15 a.u.

Take `CN(C)c1cccc2c(S(=O)(=O)N[C@@H](CCC(=O)O)C(=O)N[C@@H](Cc3cnc[nH]3)C(=O)N[C@@H](CCCNC(=N)N)C(N)=O)cccc12` [Dansyl-EHR-amide] (Dansyl-Glu-His-Arg-NH2): the “Relative Binding Index (RBI)” value amounted to 11 a.u.

Regarding `CC(C)C[C@H](NS(=O)(=O)c1cccc2c(N(C)C)cccc12)C(=O)N[C@@H](CC(=O)O)C(=O)N[C@@H](CCCNC(=N)N)C(N)=O` [Dansyl-LDR-amide] (Dansyl-Leu-Asp-Arg-NH2), the “Relative Binding Index (RBI)” value is on record as −50 a.u. Next, `CN(C)c1cccc2c(S(=O)(=O)N[C@@H](CCCNC(=N)N)C(=O)N3CCC[C@H]3C(=O)N[C@@H](CCCNC(=N)N)C(N)=O)cccc12` [Dansyl-RPR-amide] (Dansyl-Arg-Pro-Arg-NH2): 10 a.u; `CC[C@H](C)[C@H](NS(=O)(=O)c1cccc2c(N(C)C)cccc12)C(=O)N[C@@H](CCCNC(=N)N)C(=O)N[C@@H](CCCNC(=N)N)C(N)=O` [Dansyl-IRR-amide] (Dansyl-Ile-Arg-Arg-NH2): −12 a.u; `CC(C)C[C@H](NS(=O)(=O)c1cccc2c(N(C)C)cccc12)C(=O)N[C@H](C(=O)N[C@@H](CCCNC(=N)N)C(N)=O)[C@@H](C)O` [Dansyl-LTR-amide] (Dansyl-Leu-Thr-Arg-NH2): −26 a.u.

For `CC(C)C[C@H](NC(=O)[C@H](CC(C)C)NS(=O)(=O)c1cccc2c(N(C)C)cccc12)C(=O)N[C@@H](CCCNC(=N)N)C(N)=O` [Dansyl-LLR-amide], the “Relative Binding Index (RBI)” value is −40 a.u. As to `CN(C)c1cccc2c(S(=O)(=O)NCC(=O)N[C@@H](CCC(=O)O)C(=O)N[C@@H](CCCNC(=N)N)C(N)=O)cccc12` [Dansyl-GER-amide] (Dansyl-Gly-Glu-Arg-NH2), the “Relative Binding Index (RBI)” value turned out to be 25 a.u.

As for `C[C@@H](O)[C@H](NC(=O)[C@@H](NS(=O)(=O)c1cccc2c(N(C)C)cccc12)[C@@H](C)O)C(=O)N[C@@H](CCCNC(=N)N)C(N)=O` [Dansyl-TTR-amide] (Dansyl-Thr-Thr-Arg-NH2), the “Relative Binding Index (RBI)” value was −3 a.u.
